Assays:
[1] = biological target: Protein-arginine deiminase type-2 (Homo sapiens, UniProt Q9Y2J8); test: Inhibition of recombinant human 6His-tagged PAD2 assessed as reduction in residual activity preincubated for 15 mins followed by addition of N-benzoylated arginine ethyl ester hydrochloride measured after 15 mins by colder assay
[2] = biological target: T1, Protein-arginine deiminase type-1 (Homo sapiens, UniProt Q9ULC6); test: Inhibition of recombinant human 6His-tagged PAD1 assessed as reduction in residual activity preincubated for 15 mins followed by addition of N-benzoylated arginine ethyl ester hydrochloride measured after 15 mins by colder assay
T1 sequence (Q9ULC6 whole entry): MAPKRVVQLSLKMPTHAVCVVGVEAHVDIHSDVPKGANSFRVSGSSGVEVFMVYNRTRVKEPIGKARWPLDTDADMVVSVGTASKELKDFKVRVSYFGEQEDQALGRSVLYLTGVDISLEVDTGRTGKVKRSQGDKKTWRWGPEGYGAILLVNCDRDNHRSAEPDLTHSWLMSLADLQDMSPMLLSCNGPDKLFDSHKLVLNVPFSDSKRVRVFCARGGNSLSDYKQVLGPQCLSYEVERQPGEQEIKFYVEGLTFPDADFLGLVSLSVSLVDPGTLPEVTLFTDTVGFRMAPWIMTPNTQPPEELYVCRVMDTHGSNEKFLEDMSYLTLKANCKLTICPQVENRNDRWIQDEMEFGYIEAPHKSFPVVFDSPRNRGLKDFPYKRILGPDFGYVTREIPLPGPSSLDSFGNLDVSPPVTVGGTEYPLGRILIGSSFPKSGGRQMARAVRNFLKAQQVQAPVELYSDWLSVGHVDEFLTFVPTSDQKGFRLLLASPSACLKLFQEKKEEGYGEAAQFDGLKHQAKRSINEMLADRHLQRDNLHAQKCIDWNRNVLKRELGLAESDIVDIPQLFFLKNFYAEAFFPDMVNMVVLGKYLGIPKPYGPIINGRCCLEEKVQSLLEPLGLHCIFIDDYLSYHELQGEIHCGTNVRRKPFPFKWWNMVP

[3] = biological target: Protein-arginine deiminase type-4 (Homo sapiens, UniProt Q9UM07); test: Inhibition of recombinant human GST-tagged PAD4 expressed in Escherichia coli BL21-DE3 pLysS assessed as reduction in reduction in residual activity preincubated for 15 mins followed by addition of N-benzoylated arginine ethyl ester hydrochloride measured after 15 mins by colder assay
Sequence of Protein-arginine deiminase type-4 (Q9UM07 whole entry): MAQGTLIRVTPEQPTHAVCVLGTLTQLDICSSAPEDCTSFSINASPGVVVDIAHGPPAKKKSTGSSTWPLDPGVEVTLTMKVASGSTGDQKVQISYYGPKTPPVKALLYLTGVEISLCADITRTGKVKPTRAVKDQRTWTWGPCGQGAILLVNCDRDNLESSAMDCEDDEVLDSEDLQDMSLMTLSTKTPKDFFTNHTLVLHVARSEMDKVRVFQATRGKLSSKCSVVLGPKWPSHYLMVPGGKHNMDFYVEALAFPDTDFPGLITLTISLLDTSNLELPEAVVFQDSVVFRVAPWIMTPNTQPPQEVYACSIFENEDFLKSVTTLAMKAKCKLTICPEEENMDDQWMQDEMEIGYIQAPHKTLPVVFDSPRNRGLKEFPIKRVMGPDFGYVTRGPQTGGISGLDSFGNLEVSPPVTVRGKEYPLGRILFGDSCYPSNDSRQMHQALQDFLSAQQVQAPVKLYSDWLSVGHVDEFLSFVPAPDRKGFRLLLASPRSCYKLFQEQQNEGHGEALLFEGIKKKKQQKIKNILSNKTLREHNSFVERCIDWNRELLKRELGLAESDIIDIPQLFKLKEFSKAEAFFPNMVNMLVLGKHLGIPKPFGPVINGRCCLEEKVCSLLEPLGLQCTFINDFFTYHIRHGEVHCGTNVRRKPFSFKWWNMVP

Sequence of Protein-arginine deiminase type-2 (Q9Y2J8 whole entry): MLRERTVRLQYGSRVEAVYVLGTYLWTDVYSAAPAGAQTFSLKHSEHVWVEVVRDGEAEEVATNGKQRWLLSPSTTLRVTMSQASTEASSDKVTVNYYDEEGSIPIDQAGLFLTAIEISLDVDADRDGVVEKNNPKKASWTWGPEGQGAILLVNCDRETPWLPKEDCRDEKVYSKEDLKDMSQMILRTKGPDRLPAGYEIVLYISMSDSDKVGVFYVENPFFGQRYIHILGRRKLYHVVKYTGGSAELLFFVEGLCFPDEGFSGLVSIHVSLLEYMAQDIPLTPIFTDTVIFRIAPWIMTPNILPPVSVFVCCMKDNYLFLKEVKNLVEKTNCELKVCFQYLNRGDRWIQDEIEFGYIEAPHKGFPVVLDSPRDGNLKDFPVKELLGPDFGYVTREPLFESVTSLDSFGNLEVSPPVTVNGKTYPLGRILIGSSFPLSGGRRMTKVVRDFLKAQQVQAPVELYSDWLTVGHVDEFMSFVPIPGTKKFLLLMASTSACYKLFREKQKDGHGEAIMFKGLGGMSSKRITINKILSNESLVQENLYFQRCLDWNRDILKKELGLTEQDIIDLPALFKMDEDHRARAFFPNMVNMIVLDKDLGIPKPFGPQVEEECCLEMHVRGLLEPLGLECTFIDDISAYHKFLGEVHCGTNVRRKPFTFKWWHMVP

Compound | IC50 [1] | IC50 [2] | IC50 [3]
N=C(CCl)NCCOC(=O)NCc1cccc(-c2ccccc2)c1 | 151 µM | > 500 µM | –
N=C(CCl)NCCCc1nc(Cl)c(-c2cccc(-c3ccccc3)c2)[nH]1 | – | 161 µM | –
N=C(CCl)NCCNC(=O)NCc1cccc(-c2ccccc2)c1 | 140 µM | – | 129 µM
N=C(CCl)NC/C=C/C(=O)NCc1cccc(-c2ccccc2)c1 | – | 125 µM | –
N=C(CCl)NCC#CC(=O)NCc1cccc(-c2ccccc2)c1 | 153 µM | 408 µM | –
N=C(CCl)NCCCc1cn(-c2cccc(-c3ccccc3)c2)nn1 | 110 µM | 294 µM | –

— ChEMBL document CHEMBL4431395, “Cellular Activity of New Small Molecule Protein Arginine Deiminase 3 (PAD3) Inhibitors” (ACS Med Chem Lett, 2016)
